Measured values from patent US4444776A, “Dipyrido (4,3-B) (3,4-F) indoles, process for obtaining them, therapeutical use and pharmaceutical compositions” (priority 1977, dated 1984).

Columns and labels:
mice = assay: Test 21: toxicity after intraperitoneal injection
Procedure: All drugs were dissolved in aqueous solutions adjusted at pH 5 with acetic acid and inoculated to the mice under a volume of 0.1 ml I.P. after dilution in Mac Coy's medium.
The toxicity of the drugs after intraperitoneal injection was estimated from the mortality rate up to the 30th day.

leukemic cells = assay: Test 20: combination of compound 21 with other drugs (Table XV); settings: 10^5 cells, BD 40 20 mg/kg day +4, Endoxan 100 mg/kg day +3
Procedure: A priming dose of endoxan (100 mg/kg) was given 3 days after 10^5 leukemic cells (20 mice).

L 1210 leukemia = assay: Test 10: comparison of antitumoral activity with known products, L 1210 (Tables V-VII); format: in vivo, mouse
Procedure: Test 10: Comparison of the antitumoral activity of the compound according to example 7 with that of known products
The compound of example 7, i.e. 1-(γ-diethylaminopropyl)amino-5-methyl-dipyrido-[4,3-b][3,4-f] indole or known compounds were injected into L 1210 leukemic mice 1 or 3 days after the inoculation of the cells at the doses indicated in tables V to VII and the mean survival time (MST) and the precentage of increased life span (ILS %) were measured.
Indications concerned the known products used in this example and particularly their antitumoral properties, their secondary effects and their use in man may be found in "La Chimiotherapie des Cancers", by G. MATHE and M. KENIS Expansion Scientifique Francaise, 3rd edition, Paris 1975.

Cl3/8 cells = assay: Test 5: cytotoxic effect in vitro, Cl3/8 cells; format: cell-based, hamster
Procedure: Test 5: Cytotoxic effect in vitro
The cytotoxic effects of the compounds according to the invention were tested in vitro on cultures of hamster, human and mouse cells.
In particular, the BHK21 strain of hamster cells and a clone derived from this strain transformed by Hamster Sarcoma Virus HS5 clone) were used.
5 hours later, the cells were well attached to the plastic support, and the products to be tested were added, dilutions having been made thereof in water or in DMSO (dimethylsulfoxide) if the product is sparingly soluble in water. In this latter case, a control was made with the same final concentration of DMSO in the culture medium.
The state of the cells was examined 24, 48 and 72 hours afterwards.

[1] = tested on: DNA synthesis in HS5 cells; assay: Test 6: action on DNA synthesis (14C methyl-thymidine incorporation); format: cell-based, hamster; settings: in the hours following its addition
Procedure: Test 6: Action on the macromolecular syntheses
The action of the compounds according to the invention was studied by the incorporation of precursors marked by radioactive isotopes:
^14 C methyl-thymidine for studying the DNA synthesis
These precursors were given for a period of 30 minutes at varying times after the addition of the product to be tested.
The incorporation is measured after lysis of the cells for 1% of sodium dodecylsulfate and precipitation by 5% of trichloroacetic acid. The […] precipitate was collected on glass fibre Whatman GF/A filters. The filters were dried and counted in a liquid scintillation spectrometer.

[2] = Table V, 10^4 cells, J+1, 0.2 mg/mouse
[3] = Table V, 10^4 cells, J+3, doses mg/mouse: example 7 0.2, Thiotepa 0.1, Mitomycine 0.016, BCNU 0.1, Methotrexate 0.250
[4] = Table VI, 10^5 cells, J+1, 0.2 mg/mouse
[5] = Table VI, 10^5 cells, J+3, mg/mouse: Thiotepa 0.1, Mitomycine C 0.016, BCNU 0.1, Methotrexate 0.250, example 7 0.2, Endoxan 4
[6] = Table VII, 10^5 cells, J+3, example 7 0.2 mg/mouse, ON COVIN 0.5 μg/mouse

CCN(CC)CCCNc1nccc2c(C)c3[nH]c4ccncc4c3cc12 [Example 7, 1-(γ-diethylaminopropyl)amino-5-methyl-dipyrido-[4,3-b][3,4-f] indole]
time of deaths after drug administration (mice; IP): 4 to 8 days | minimal quantity resulting in 100% deaths (mice; IP, mortality up to the 30th day): 50 mg/kg | toxicity (toxic dose) (mice; Test 17 text): 50 mg/kg | ILS % (leukemic cells; BCNU 2 mg/kg): 65.2% | Range of death (leukemic cells; BCNU 2 mg/kg immediately after endoxan): 14-32 | MST (leukemic cells; BCNU 2 mg/kg, control 11.2): 18.5 | Range of death (first death) (L 1210 leukemia; [2]): 6 days | mice alive on 30th day (L 1210 leukemia; [2]): 1 | ILS % (L 1210 leukemia; [3]): 25.45% | MTS (mean survival time) (L 1210 leukemia; [3]): 13.8 | Range of death (L 1210 leukemia; Table V, 10^4 cells, J+3, mg/mouse: example 7 0.2, Thiotepa 0.1, Mitomycine 0.016, BCNU 0.1, Methotrexate 0.250, Endoxan 4): 11 to 17 days | ILS % (L 1210 leukemia; [4]): 39.07% | MTS (mean survival time) (L 1210 leukemia; [4]): 12.6 | Range of death (L 1210 leukemia; [4]): 9-16 | ILS % (L 1210 leukemia; [5]): 35.43% | MTS (mean survival time) (L 1210 leukemia; [5]): 12.27 | Range of death (L 1210 leukemia; [5]): 10-15 | ILS % (L 1210 leukemia; [6]): 36.35% | MTS (mean survival time) (L 1210 leukemia; [6]): 14.18 | Range of death (L 1210 leukemia; [6]): 13-16 | cytotoxic activity compared with 2-methyl-9-hydroxy-ellipticinium acetate and 9-hydroxy-ellipticine (Cl3/8 cells; Table III summary): just as active as the already known derivatives | activity compared with products presently used as antitumoral agents in lower animals (Cl3/8 cells; general statement): just as active, or more so

Cc1c2ccncc2c(C)c2c1[nH]c1ccncc12 [Example 1, 5,11-dimethyl dipyrido [4,3-b][3,4-f] indole]
DNA and RNA syntheses [1]: reduces very rapidly
